This is an account of results in PubChem BioAssay AID588667 (The Scripps Research Institute Molecular Screening Center, 2011).

The test addresses Epidermal growth factor receptor (Homo sapiens) (UniProt P00533). The test is described as follows: total EGFR protein level reduction, late-stage follow-up, counter-screen for KLF5 inhibitor project, SW620 cells, chemiluminescent western blot, powder samples (AID 588667). Particulars: 24 h, at 10 µM; for inhibition: stronger effect = higher value; for signed fold change of EGFR band vs DMSO (negative = fold decrease; more negative = more active): measured here: EGFR band fold change vs DMSO.

Chain of Epidermal growth factor receptor (Homo sapiens) (P00533 whole entry, looked up): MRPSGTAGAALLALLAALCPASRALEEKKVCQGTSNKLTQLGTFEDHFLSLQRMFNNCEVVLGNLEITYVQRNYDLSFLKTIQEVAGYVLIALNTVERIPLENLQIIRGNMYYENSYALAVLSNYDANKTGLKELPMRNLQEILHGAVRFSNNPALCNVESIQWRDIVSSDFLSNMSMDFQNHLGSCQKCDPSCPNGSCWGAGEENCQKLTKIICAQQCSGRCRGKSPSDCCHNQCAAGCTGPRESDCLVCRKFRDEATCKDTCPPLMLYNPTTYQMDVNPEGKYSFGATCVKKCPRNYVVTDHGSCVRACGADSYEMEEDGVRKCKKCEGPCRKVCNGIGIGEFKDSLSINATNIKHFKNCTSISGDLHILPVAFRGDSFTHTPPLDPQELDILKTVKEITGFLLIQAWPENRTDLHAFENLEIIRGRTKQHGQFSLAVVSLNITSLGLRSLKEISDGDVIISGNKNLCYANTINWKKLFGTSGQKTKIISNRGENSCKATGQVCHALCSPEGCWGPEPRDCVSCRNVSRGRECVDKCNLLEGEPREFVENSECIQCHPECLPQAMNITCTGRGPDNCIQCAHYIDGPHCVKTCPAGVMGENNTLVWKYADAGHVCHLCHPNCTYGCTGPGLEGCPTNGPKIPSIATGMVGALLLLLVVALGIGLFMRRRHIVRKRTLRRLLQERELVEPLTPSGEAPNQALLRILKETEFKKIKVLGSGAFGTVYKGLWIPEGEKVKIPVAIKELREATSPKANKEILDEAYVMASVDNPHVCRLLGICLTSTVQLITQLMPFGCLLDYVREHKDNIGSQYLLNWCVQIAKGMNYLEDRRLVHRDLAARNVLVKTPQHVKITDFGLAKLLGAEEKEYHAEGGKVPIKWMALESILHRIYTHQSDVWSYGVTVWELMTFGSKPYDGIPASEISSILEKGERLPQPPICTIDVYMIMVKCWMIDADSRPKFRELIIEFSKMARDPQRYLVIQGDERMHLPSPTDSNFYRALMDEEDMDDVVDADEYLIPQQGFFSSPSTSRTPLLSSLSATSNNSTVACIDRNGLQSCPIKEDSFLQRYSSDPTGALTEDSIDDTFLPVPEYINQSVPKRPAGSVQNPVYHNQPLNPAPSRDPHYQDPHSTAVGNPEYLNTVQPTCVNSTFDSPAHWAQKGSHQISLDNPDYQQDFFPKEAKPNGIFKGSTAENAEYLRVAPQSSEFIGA

Broadly, the inhibition is the drop in the measured response relative to a control, in per cent. On to `CN(C(=O)COC(=O)/C=C/c1cccc([N+](=O)[O-])c1)C1CCS(=O)(=O)C1` (stereo unspecified), for which the inhibition was 53.3% and the signed fold change of EGFR band vs DMSO (negative = fold decrease; more negative = more active) was -2.14.
In the same order, the values of `CN(C(=O)CNC(=O)/C=C/c1cccc(Cl)c1)C1CCS(=O)(=O)CC1` are 87.1% and -7.78.
In the case of `CN(C(=O)CNC(=O)/C=C/c1cccc(Cl)c1)C1CCS(=O)(=O)C1` (stereo unspecified), the inhibition is 31.7% and the signed fold change of EGFR band vs DMSO (negative = fold decrease; more negative = more active) was -1.46.
